{
  "source": "patent US20080299599A1",
  "about": "“FLUORESCENT PROTEINS FOR MONITORING INTRACELLULAR SUPEROXIDE PRODUCTION” (priority 2006, published 2008)",
  "key": {"[1]": {"tested_on": "rat PC12 pheochromocytoma cells", "assay_type": "cell-based", "conditions": "for occurrence of superoxide flashes: ρ− PC12 cells; for incidence of superoxide flashes: ethidium bromide 200 ng/ml for 60 days, PC12 cells", "excerpt": "(§1) Enzymatically isolated rat ventricular myocytes and hippocampal neurons in primary culture were infected with adenovirus carrying the mt-cpYFP gene or its mutants at an m.o.i. of 1:100 and cultured for 2 to 3 days (Zhou et al., Am. J. Physiol. Heart Circ. Physiol., 279; H429-H436, 2000). Similar conditions were used when expressing mt-cpYFP in other cell types. To obtain spatially and temporally resolved fluorescent images of mt-cpYFP, a Zeiss LSM 510 confocal microscope equipped with a 63×, 1.3NA oil immersion objective and a sampling rate of 0.7 s/frame was used. Dual wavelength excitation imaging of mt-cpYFP was achieved by alternating excitation at 405 and 488 nm and collecting emission at >505 nm. Tri-wavelength excitation imaging of mt-cpYFP and TMRM (20 nM) or rhod-2 was achieved by tandem excitation at 405, 488, and 543 nm, and the emission was collected at 515-550, 515-550 and >560 nm, respectively. To increase mitochondrion retention of rhod-2, the indicator loading protocol described by Hajnoczky C et al. was used with modification (Hajnoczky et al., Cell, 82: 415-424, 2000). Briefly, cells were loaded with 4 μM rhod-2 AM (after NaBH4 quenching) at 4° C. for 1 hr, and then changed to normal culture medium for 4 hrs. The standard extracellular perfusion solution contained (in mM): NaCl 137, KCl 4.9, CaCl21, MgSO4 1.2, NaH2PO4 1.2, glucose 15, and HEPES 20 (pH 7.4). Digital image processing was performed using IDL software (Research Systems) and customer-devised programs.\n(§2) ρ° 143B TK human osteosarcoma cells and its wild type control were a generous gift from Dr. Nadja C. de Souza-Pinto (National Institute on Aging, NIH). Wild type and ρ° 143B cells were cultured under identical conditions, in DMEM medium supplemented with 10% FBS, 100 μg/ml pyruvate, 100 μg/ml bromodeoxyuridine and 50 μg/ml uridine17. Mitochondria of ρ° 143B cells completely lack mitochondrial respiration, due to the loss of critical ETC proteins including constituents of complex I (ND1-6, ND4L), complex III (cytochrome b) and complex IV (COX I-III) encoded by mitochondrial DNA. To partially deplete mitochondrial DNA and allow partial disruption of mitochondrial respiration, PC12 pheochromocytoma cells were cultured in DMEM medium with 10% FBS, 200 ng/ml ethidium bromide, 100 μg/ml pyruvate and 50 μg/ml uridine for up to 60 days. Depletion of mitochondrial DNA was evidenced by western blot analysis of cytochrome C oxidase subunit I."}, "[2]": {"tested_on": "superoxide flashes in rat cardiac myocytes", "assay": "Confocal imaging of superoxide flashes in cardiac myocytes expressing mt-cpYFP", "assay_type": "cell-based", "conditions": "for occurrence of superoxide flashes: cardiac myocytes", "procedure": "Similar conditions were used when expressing mt-cpYFP in other cell types. […] Briefly, cells were loaded with 4 μM rhod-2 AM (after NaBH4 quenching) at 4° C. for 1 hr, and then changed to normal culture medium for 4 hrs. […] Digital image processing was performed using IDL software (Research Systems) and customer-devised programs."}, "[3]": {"tested_on": "ρ° 143B TK-human osteosarcoma cells", "assay": "Superoxide flashes in mitochondrial DNA-deleted ρ° 143B cells", "assay_type": "cell-based", "conditions": "atractyloside 20 μM", "excerpt": "as §1, with “Digital image processing was performed using IDL software (Research Systems) and customer-devised programs.” left out"}, "[4]": {"tested_on": "superoxide flashes in cardiac myocytes", "assay": "Superoxide flashes in cardiac myocytes during hypoxia and reoxygenation", "assay_type": "cell-based, rat", "conditions": "diazoxide 30 μM added 20 min prior to hypoxia", "excerpt": "as §1, with “Digital image processing was performed using IDL software (Research Systems) and customer-devised programs.” left out"}, "[5]": {"tested_on": "cytochrome C oxidase subunit I (COX-1)", "assay": "Western blot of cytochrome C oxidase subunit I in ethidium bromide-treated PC12 cells", "assay_type": "cell-based, rat", "conditions": "ethidium bromide 200 ng/ml for 60 days", "procedure": "as §2"}, "cellular ROS production": {"tested_on": "cellular ROS production", "conditions": "previous finding, Aon et al. 2003; cited from earlier work"}, "[6]": {"assay": "Spectral analysis of purified cpYFP: in vitro redox calibration and response to ROS and metabolites", "assay_type": "biochemical", "procedure": "cpYFP cDNA (807 bp) was cloned into a prokaryotic expression vector (pRSET) and transferred into E. Coli cell line (BL21(DE3)LysS) for large-scale protein expression. In vitro redox calibration of cpYFP fluorescence was carried out using methods described previously (Hanson et al., J. Biol. Chem., 279: 13044-13053, 2004). Briefly, under an inert environment, purified cpYFP protein (1 μM) was incubated with either 10 mM reduced DTT or 1 mM aldrithiol for at least 3 hours, allowing for solution equilibration. Reduced DTT was removed from the solution allowing measurement of cpYFP response to various ROS and metabolites. The calibration solution contained (in mM): HEPES 75, KCl 125, and EDTA 1, pH=8.0. Emission and excitation spectra of reduced and oxidized cpYFP in the presence of designated reagents were obtained with a spectrofluorimeter (Model: CM1T101, HORIBA Jobin Yvon, Inc.) filled with nitrogen gas.\nUsing cpYFP purified from an E. coli expression system, excitation and emission fluorescence spectra were measured in response to reducing (10 mM reduced DTT) and oxidizing manipulations (1 mM aldrithiol). […] Extensive in vitro experiments were performed to determine the selectivity of cpYFP among physiologically relevant oxidants and metabolites. […] The cpYFP signal, however, was insensitive to hydrogen peroxide (H2O2) over a wide range of concentrations (0.1-10 mM) (FIG. 1c) and peroxynitrite (FIG. 2), and was decreased by hydroxyl radicals (.OH) (FIG. 1c) and nitric oxide (FIG. 2)."}},
  "note": "Read-outs that look alike come from different tables or passages of the source.",
  "data": [
    {"compound": "C=C(C)[C@H]1Cc2c(ccc3c2O[C@@H]2COc4cc(OC)c(OC)cc4[C@@H]2C3=O)O1", "note": "[Rotenone]", "values": [
      {"measurement": "occurrence of superoxide flashes", "setting": "[1]; rotenone 5 μM", "value": "virtually abolished"},
      {"measurement": "occurrence of superoxide flashes", "setting": "[2]; rotenone 5 μM", "value": "virtually abolished"}
    ]},
    {"compound": "C=C1[C@@H]2CC[C@H]3[C@]4(C)C[C@H](O[C@@H]5O[C@H](CO)[C@@H](OS(=O)(=O)O)[C@H](OS(=O)(=O)O)[C@H]5OC(=O)CC(C)C)C[C@@H](C(=O)O)[C@H]4CC[C@]3(C2)[C@H]1O", "note": "[atractyloside]", "values": [
      {"measurement": "rescue of superoxide flashes in ρ° cells", "setting": "[3]", "value": "cannot be rescued"},
      {"measurement": "effect on superoxide flash frequency", "setting": "[2]; atractyloside 20 μM", "value": "significantly augment superoxide flash frequency"}
    ]},
    {"compound": "CO[C@H](C/C=C\\C=C\\CC/C=C/C[C@H](C)/C=C/C(=C\\C(=O)O)CC(=O)O)/C(C)=C\\C=C(/C)C(=O)O", "note": "[bongkrekic acid]", "values": [
      {"measurement": "effect on superoxide flash amplitude", "setting": "[2]; bongkrekic acid 100 μM", "value": "reducing their amplitude"},
      {"measurement": "effect on superoxide flash kinetics", "setting": "[2]; bongkrekic acid 100 μM", "value": "abbreviating their kinetics"},
      {"measurement": "incidence of superoxide flashes", "setting": "[2]; bongkrekic acid 100 μM", "value": "33 % of control"}
    ]},
    {"compound": "CC1=NS(=O)(=O)c2cc(Cl)ccc2N1", "note": "[diazoxide]", "values": [
      {"measurement": "effect on rebound flurry of superoxide flash activity after reoxygenation", "setting": "[4]", "value": "effectively protected the cells from the rebound flurry of superoxide flash activity"}
    ]},
    {"compound": "CC[n+]1c(-c2ccccc2)c2cc(N)ccc2c2ccc(N)cc21", "note": "[ethidium bromide]", "values": [
      {"measurement": "cytochrome C oxidase subunit I (COX-1) expression", "setting": "[5]", "value": "70 % of control"},
      {"measurement": "incidence of superoxide flashes", "setting": "[1]", "value": "60 % of control"},
      {"measurement": "incidence of superoxide flashes", "setting": "[1]; wild type 63±6", "value": "23±3 events per 1000 μm2 cell area per 100 s"}
    ]},
    {"compound": "O=S(=O)(O)c1cc(O)c(O)c(S(=O)(=O)O)c1", "note": "[tiron]", "values": [
      {"measurement": "effect on frequency and amplitude of flashes", "setting": "[2]; tiron 1 mM", "value": "similarly diminished the frequency and amplitude of flashes"}
    ]},
    {"compound": "C160A/C182A: SEQ ID NO. 1 with both cysteines C160 and C182 substituted to alanine", "values": [
      {"measurement": "response of the probe to superoxide after cysteine substitution", "setting": "[2]; residue numbering of SEQ ID NO. 1", "value": "completely abolishes the response of the probe to superoxide"}
    ]},
    {"compound": "MnTMPyP", "values": [
      {"measurement": "inhibition of flash activity", "setting": "[2]; MnTMPyP 50 μM", "value": 83, "unit": "%"},
      {"measurement": "flash amplitude (ΔF/F0)", "setting": "[2]; MnTMPyP 50 μM, n=12, p<0.01 vs control", "value": "0.18±0.02"}
    ]},
    {"compound": "antimycin A", "values": [
      {"measurement": "effect on cellular ROS production measured with DCF", "setting": "cellular ROS production", "value": "increases cellular ROS production"},
      {"measurement": "occurrence of superoxide flashes", "setting": "[1]; antimycin A 5 μg/ml", "value": "virtually abolished"},
      {"measurement": "occurrence of superoxide flashes", "setting": "[2]; antimycin A 5 μg/ml", "value": "virtually abolished"}
    ]},
    {"compound": "cpYFP: circularly permuted yellow fluorescent protein; superoxide probe of SEQ ID NO. 1, pericam without calmodulin and M13 domains", "values": [
      {"measurement": "brightness of oxidized cpYFP versus fully reduced species", "setting": "[6]; 1 mM aldrithiol vs 10 mM reduced DTT, excited at 488 nm", "value": "about five times brighter"},
      {"measurement": "cpYFP signal response to other metabolites", "setting": "[6]; ATP, ADP, NAD(P)+, NAD(P)H and Ca2+ at physiological concentrations", "value": "negligible or only marginal effects"},
      {"measurement": "cpYFP signal response to hydroxyl radicals", "setting": "[6]; Fenton reaction, 1 mM H2O2 plus 0.1 mM FeSO4, anaerobic", "value": "decreased"},
      {"measurement": "cpYFP signal response to hydrogen peroxide", "setting": "[6]; H2O2 0.1-10 mM", "value": "insensitive"},
      {"measurement": "cpYFP signal response to peroxynitrite", "setting": "[6]; SIN-1 1 mM in aerobic solution", "value": "insensitive"},
      {"measurement": "cpYFP signal response to nitric oxide", "setting": "[6]; SIN-1 1 mM in anaerobic solution", "value": "decreased"},
      {"measurement": "cpYFP brightness dependence on pH", "setting": "[6]; basic environments, e.g. mitochondrial matrix pH 8.0", "value": "brighter in basic environments"},
      {"measurement": "increase of cpYFP fluorescence in response to O2.−", "setting": "[6]; xanthine/xanthine oxidase (2 mM/20 mU), aerobic, compared to fully reduced state", "value": 420, "unit": "%"}
    ]}
  ]
}
